This note sets out measurements from PubChem BioAssay (NCI).

Structures are written as SMILES.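 Protocol summary: plate cells (96-well), add compound at 5 concentrations, incubate 48 h, interpolate endpoints linearly. GI50: concentration for 50% inhibition of growth. TGI marks complete inhibition of growth.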

Among the test systems are BT-549 breast; HS 578T breast; NCI/ADR-RES ovarian; OVCAR-4 ovarian; SK-MEL-5 melanoma; SNB-19 CNS; DMS 114 small cell lung; HOP-18 NSCLC; KM20L2 colon; DLD-1 colon.
What all share (assay): NCI tumour cell line growth inhibition, 48 h

Take `N#CC1c2ccccc2-c2ccccc2N1C(=O)c1ccccc1` (centres undefined): the GI50 in the experiment on BT-549 breast is 0.507 µM; in the experiment with HS 578T breast it was 1.99 µM; in the experiment on NCI/ADR-RES ovarian it was 1.81 µM; with OVCAR-4 ovarian it was 3.29 µM; in the experiment with SK-MEL-5 melanoma, 1.55 µM; in the experiment with SNB-19 CNS, 4.12 µM. The TGI is 2.54 µM with BT-549 breast; 6.72 µM in the experiment with HS 578T breast; more than 100 µM in the experiment on NCI/ADR-RES ovarian; more than 72.3 µM in the experiment with OVCAR-4 ovarian; 4.84 µM in the experiment on SK-MEL-5 melanoma; more than 100 µM in the experiment on SNB-19 CNS.

Consider `CC1OC(=O)N(CCCC=C2SCCCS2)C1=O` (centres undefined), for which the TGI with DMS 114 small cell lung, with HOP-18 NSCLC, in the experiment on KM20L2 colon, in the experiment with OVCAR-4 ovarian and in the experiment on SNB-19 CNS was more than 100 µM in each case.

As to `COc1cc2oc3ccccc3c(=O)c2cc1CSc1ccccc1N`, the TGI was more than 100 µM in the experiment with BT-549 breast; more than 100 µM with HS 578T breast; more than 70.9 µM in the experiment with NCI/ADR-RES ovarian; more than 100 µM with OVCAR-4 ovarian; more than 74 µM with SK-MEL-5 melanoma; more than 100 µM with SNB-19 CNS.

In the case of `CCCC/C(=N\N=C(N)N)c1ccc(F)cc1`, the GI50 is 3.48 µM in the experiment on BT-549 breast; 2.88 µM in the experiment on HS 578T breast; 2.38 µM in the experiment with NCI/ADR-RES ovarian; 5.27 µM in the experiment on OVCAR-4 ovarian; 1.48 µM in the experiment on SK-MEL-5 melanoma; 2.64 µM in the experiment on SNB-19 CNS. In addition, the TGI with BT-549 breast came out at 12.5 µM; with HS 578T breast, 8.81 µM; in the experiment on NCI/ADR-RES ovarian, 8.29 µM; in the experiment with OVCAR-4 ovarian, 20 µM; in the experiment with SK-MEL-5 melanoma, 4.27 µM; with SNB-19 CNS it was 13.8 µM.

On to `CN1C(=O)c2cc(Cl)nc3c(NC(=O)c4cccc(Cl)c4)c(Cl)c(NC(=O)c4cccc(Cl)c4)c1c23`, for which the GI50 with BT-549 breast was 1.64 µM; in the experiment with HS 578T breast, 2.48 µM; with NCI/ADR-RES ovarian, 3.38 µM; with OVCAR-4 ovarian it was 1.7 µM; in the experiment with SK-MEL-5 melanoma, 2.09 µM; in the experiment with SNB-19 CNS, 2.45 µM. The TGI amounted to 3.19 µM in the experiment with BT-549 breast; 7.16 µM in the experiment on HS 578T breast; 17.3 µM with NCI/ADR-RES ovarian; 3.3 µM in the experiment on OVCAR-4 ovarian; 4.36 µM with SK-MEL-5 melanoma; 6.08 µM in the experiment with SNB-19 CNS.

`O=C(OCc1ccccc1CN1CCOCC1)c1ccc(Br)cc1`: the TGI in the experiment with BT-549 breast was more than 100 µM; in the experiment with HS 578T breast, more than 100 µM; in the experiment on NCI/ADR-RES ovarian, more than 100 µM; in the experiment on OVCAR-4 ovarian, more than 100 µM; with SK-MEL-5 melanoma it was 41.9 µM; with SNB-19 CNS, more than 100 µM.

Take `CN1CCCC1c1cccnc1.O=C(O)c1ccccc1O.O=C([O-])c1ccccc1[OH2+].O=C([O-])c1ccccc1[OH2+].O=C([O-])c1ccccc1[OH2+].[Mn+2]` (centres undefined): the GI50 in the experiment on BT-549 breast is 39.7 µM; in the experiment on HS 578T breast, 2.43 µM; in the experiment on NCI/ADR-RES ovarian it was more than 100 µM; with OVCAR-4 ovarian it was more than 100 µM; with SK-MEL-5 melanoma, more than 100 µM; in the experiment on SNB-19 CNS, more than 100 µM. Further, the TGI with BT-549 breast, in the experiment on HS 578T breast, in the experiment on NCI/ADR-RES ovarian, with OVCAR-4 ovarian, in the experiment on SK-MEL-5 melanoma and in the experiment with SNB-19 CNS was more than 100 µM throughout.

Consider `Cc1nnc2n1N=C(CC(=O)c1ccc(O)cc1O)CN2N`, for which the TGI in the experiment with DLD-1 colon was more than 100 µM; with DMS 114 small cell lung, 40 µM; in the experiment on KM20L2 colon, more than 100 µM; with OVCAR-4 ovarian it was more than 100 µM; with SK-MEL-5 melanoma it was more than 100 µM; in the experiment with SNB-19 CNS it was more than 100 µM.

For `COC(=O)/C(C#N)=C1\N=NNN1CCCN1CCOCC1`, the TGI in the experiment with DLD-1 colon, in the experiment on DMS 114 small cell lung, with HOP-18 NSCLC, in the experiment on SK-MEL-5 melanoma and in the experiment with SNB-19 CNS was more than 100 µM each time.

Turning to `S=C(Nc1ccccc1)Nc1[nH]c(=S)sc1-c1nc2ccccc2[nH]1`, the TGI was more than 100 µM in the experiment with DLD-1 colon; more than 100 µM in the experiment on HOP-18 NSCLC; 81.2 µM with OVCAR-4 ovarian; more than 100 µM in the experiment on SK-MEL-5 melanoma; more than 100 µM in the experiment on SNB-19 CNS.

As to `COc1cc[nH]c1/C=C1\C(=O)Nc2ccc(F)c(C#CC3(O)CCOCC3)c21`, the GI50 in the experiment with BT-549 breast was 0.556 µM; in the experiment with HS 578T breast, 0.528 µM; in the experiment on NCI/ADR-RES ovarian, 0.885 µM; in the experiment on OVCAR-4 ovarian, 2.34 µM; in the experiment on SK-MEL-5 melanoma, 0.497 µM; in the experiment on SNB-19 CNS it was 1.02 µM. The TGI in the experiment on BT-549 breast is 1.37 µM; with HS 578T breast, 3.56 µM; in the experiment on NCI/ADR-RES ovarian it was 8.42 µM; in the experiment with OVCAR-4 ovarian, 14.7 µM; in the experiment on SK-MEL-5 melanoma, 1.19 µM; in the experiment with SNB-19 CNS, more than 19.5 µM.

Turning to `O=C1C=C(Nc2cccc(Br)c2)c2ccccc2C1=O`, the GI50 was 4.58 µM in the experiment on BT-549 breast; 0.259 µM in the experiment on HS 578T breast; 10.8 µM in the experiment on NCI/ADR-RES ovarian; 11 µM with OVCAR-4 ovarian; 1.2 µM in the experiment on SK-MEL-5 melanoma; 6.56 µM with SNB-19 CNS. The TGI in the experiment on BT-549 breast is 33.9 µM; in the experiment on HS 578T breast, 14.4 µM; with NCI/ADR-RES ovarian, 51.6 µM; in the experiment with OVCAR-4 ovarian, 63.2 µM; in the experiment on SK-MEL-5 melanoma it was 10.5 µM; in the experiment on SNB-19 CNS, more than 100 µM.

Regarding `CC1=C(C#N)C(N)=C2C(C)=C(C#N)C(N)=C12`, the TGI in the experiment with DLD-1 colon, in the experiment with DMS 114 small cell lung, in the experiment on KM20L2 colon, with OVCAR-4 ovarian, in the experiment on SK-MEL-5 melanoma and in the experiment on SNB-19 CNS was more than 100 µM in each case.

Consider `Cc1c(C(C)C)cc(OCCO)cc1C(C)C`, for which the TGI with BT-549 breast was more than 100 µM; in the experiment with HS 578T breast, 93.3 µM; with NCI/ADR-RES ovarian, more than 100 µM; in the experiment with OVCAR-4 ovarian it was more than 100 µM; with SK-MEL-5 melanoma, 38.1 µM; with SNB-19 CNS it was more than 100 µM.

For the molecule `COC(=O)[C@H](Cc1ccccc1)NC(=O)c1csc([C@@H](C[C@H](C(C)C)N(C)C(=O)[C@@H](NC(=O)[C@H]2CCCCN2C)C2CC2)OC(C)=O)n1`, the GI50 was 0.0349 µM in the experiment with BT-549 breast; 0.0245 µM with HS 578T breast; 2.05 µM with NCI/ADR-RES ovarian; 1.62 µM with OVCAR-4 ovarian; 0.0521 µM in the experiment on SK-MEL-5 melanoma. Moreover, the TGI in the experiment on BT-549 breast is 0.556 µM; in the experiment with HS 578T breast, 14.5 µM; in the experiment on NCI/ADR-RES ovarian, more than 25 µM; in the experiment with OVCAR-4 ovarian, more than 25 µM; with SK-MEL-5 melanoma, 3.37 µM; in the experiment on SNB-19 CNS it was more than 25 µM.

Turning to `CCOC(=O)c1cnc2[nH]c(=O)c3ccccc3n2c1=O`, the TGI in the experiment on DLD-1 colon, in the experiment on HOP-18 NSCLC, in the experiment on KM20L2 colon, with OVCAR-4 ovarian, in the experiment on SK-MEL-5 melanoma and in the experiment on SNB-19 CNS was more than 100 µM each time.
